Experimental data from the supplement of paper PMC10307832.

Columns and labels:
Test in all cases: relative viability (nuclei count vs DMSO), 5 days (fraction); higher = more cells survive
[1] = compound: C1=CC=C2C(=C1)C=CC(=C2SSC3=C(C=CC4=CC=CC=C43)O)O [IPA-3] + COc1cccc2cc(-c3nc([C@H]4CC[C@H](C(=O)O)CC4)n4ncnc(N)c34)[nH]c12 [OSI-027] (partner 0.5 µM)
Method in brief: (§1)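 One day after seeding in 1536-well plates, lung cancer cell lines were dosed by pin tool. Dosing was either single-drug or a fixed anchor-drug dose plus five library-drug doses (not always all listed) in √10 steps. After 5 days, nuclei were stained in one fix-and-stain step and counted on 4× images, and relative viability is the nuclei count of treated wells over that of vehicle wells, given as the median of duplicate plates.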

[2] = compound: C1=CC=C2C(=C1)C=CC(=C2SSC3=C(C=CC4=CC=CC=C43)O)O [IPA-3] + Cc1nc(Nc2ncc(C(=O)Nc3c(C)cccc3Cl)s2)cc(N2CCN(CCO)CC2)n1 [Dasatinib] (partner 0.075 µM)
Method in brief: as §1

[3] = compound: Cc1ccc(-n2nc(C(C)(C)C)cc2NC(=O)Nc2ccc(OCCN3CCOCC3)c3ccccc23)cc1 [Doramapimod] + CC(=O)Nc1cccc(-n2c(=O)n(C3CC3)c(=O)c3c(Nc4ccc(I)cc4F)n(C)c(=O)c(C)c32)c1 [Trametinib] (partner 0.02 µM)
Method in brief: as §1

[4] = compound: Cc1ccc(-n2nc(C(C)(C)C)cc2NC(=O)Nc2ccc(OCCN3CCOCC3)c3ccccc23)cc1 [Doramapimod] + N=C(N)NC(=N)NCCc1ccccc1 [Phenformin] (partner 250 µM)
Method in brief: as §1

Cell Line	relative viability ([1]; first compound 0.2 µM)	relative viability ([1]; first compound 0.6325 µM)	relative viability ([1]; first compound 2 µM)	relative viability ([1]; first compound 6.325 µM)	relative viability ([1]; first compound 20 µM)	relative viability ([2]; first compound 0.2 µM)	relative viability ([2]; first compound 0.6325 µM)	relative viability ([2]; first compound 2 µM)	relative viability ([2]; first compound 6.325 µM)	relative viability ([2]; first compound 20 µM)	relative viability ([3]; first compound 0.02 µM)	relative viability ([3]; first compound 0.06325 µM)	relative viability ([3]; first compound 0.2 µM)	relative viability ([3]; first compound 0.6325 µM)	relative viability ([3]; first compound 2 µM)	relative viability ([4]; first compound 0.02 µM)	relative viability ([4]; first compound 0.06325 µM)	relative viability ([4]; first compound 0.2 µM)	relative viability ([4]; first compound 0.6325 µM)	relative viability ([4]; first compound 2 µM)
SW 1573	0.867	0.385	0.528	0.634	0.183	0.689	0.395	0.589	0.452	0.151	0.524	0.429	0.451	0.452	0.514	0.355	0.304	0.306	0.301	0.236
NCI-H2405	0.651	0.644	0.669	0.691	0.666	0.221	0.204	0.204	0.163	0.211	0.613	0.618	0.612	0.705	0.581	0.402	0.374	0.335	0.423	0.316
NCI-H2087	0.616	0.543	0.586	0.602	0.642	1.16	0.663	0.865	0.822	0.777	0.235	0.163	0.198	0.197	0.193	0.403	0.459	0.411	0.415	0.412
NCI-H460	1.2	0.615	0.658	0.671	0.78	0.757	0.45	0.422	0.539	0.363	0.163	0.143	0.135	0.159	0.105	0.51	0.54	0.581	0.595	0.454
LOU-NH91	0.709	0.732	0.811	0.73	0.776	0.628	0.568	0.573	0.542	0.697	0.802	0.771	0.761	0.767	0.678	0.76	0.671	0.735	0.774	0.417
NCI-H1651	0.71	0.73	0.695	0.804	0.706	0.652	0.304	0.486	0.574	0.458	0.811	0.865	0.823	0.792	0.825	0.323	0.317	0.348	0.415	0.45
NCI-H441	0.819	0.613	0.527	0.54	0.426	0.796	0.295	0.486	0.502	0.438	0.511	0.524	0.457	0.568	0.366	0.895	0.808	0.828	–	0.729
